Laboratory results from PMC5544254 (Molecular bioSystems, 2017).

Test system: SMNDC1_12PC RNA (5′-UTR SMNDC1 mRNA G quadruplex)
Assay: Steady-state fluorescence spectroscopy titration, PC reporter quenching
Type: binding
Details: BSA titrated into SMNDC1_12PC RNA, control experiment, Supplemental Figure 1D

bovine serum albumin [BSA] was tested, and the “change of steady state fluorescence of PC reporter (non-specific control)” value was “did not change”.
